This passage reports solubility results from EP0334218A1, “Solid, especially suited for oral and rectal adiministration, etofenamate-containing preparations” (HEXAL-PHARMA GMBH & CO. KG, priority 1988, dated 1989).

Values after ≈ are worked out from the molar mass of the structure shown.

This data set can be described thus: Solubility behaviour (dissolved etofenamate over time) in distilled water. It is filed as physicochemical. The following applies: 22° C, read-out: Etofenamat gelöst. The method, then: Vergleich des Löslichkeitsverhaltens von reinem Etofenamat und zwei Etofenamat-Cyclodextrinzubereitungen gemäß der Erfindung:
Die Untersuchungen wurden in destilliertem Wasser bei 22° C durchgeführt und erbrachten die folgenden Ergebnisse: […]

Take `O=C(OCCOCCO)c1ccccc1Nc1cccc(C(F)(F)F)c1` [Etofenamat, 2-(2-Hydroxyethoxy)-ethyl-N-(α,α,α-trifluoro-m-tolyl)-anthranilat]: the solubility at 1 min (1 min) is 9 µg/mL (≈ 24.4 µM). Moreover, the solubility at 0.05 h (3 min) stood at 11 µg/mL (≈ 29.8 µM). The solubility at 5 min (5 min) is 11 µg/mL (≈ 29.8 µM). Besides, the solubility at 10 min (10 min) was 11 µg/mL (≈ 29.8 µM). Moreover, the solubility at 0.25 h (15 min) turned out to be 13 µg/mL (≈ 35.2 µM). For the same compound, the solubility at 0.5 h (30 min) was determined as 13 µg/mL (≈ 35.2 µM). Further, the solubility at 0.75 h (45 min) was 11 µg/mL (≈ 29.8 µM). In addition, where the note is “60 min”, the solubility at 1 h stood at 12 µg/mL (≈ 32.5 µM).
